# In ChEMBL document CHEMBL1921734 (Bioorg Med Chem, 2011):
# Columns and labels:
# [1] = biological target: T1, Steroid 17-alpha-hydroxylase/17,20 lyase (Homo sapiens, UniProt P05093); experiment: Inhibition of 17,20-lyase activity of human CYP17A1
# T1 sequence (P05093 whole entry): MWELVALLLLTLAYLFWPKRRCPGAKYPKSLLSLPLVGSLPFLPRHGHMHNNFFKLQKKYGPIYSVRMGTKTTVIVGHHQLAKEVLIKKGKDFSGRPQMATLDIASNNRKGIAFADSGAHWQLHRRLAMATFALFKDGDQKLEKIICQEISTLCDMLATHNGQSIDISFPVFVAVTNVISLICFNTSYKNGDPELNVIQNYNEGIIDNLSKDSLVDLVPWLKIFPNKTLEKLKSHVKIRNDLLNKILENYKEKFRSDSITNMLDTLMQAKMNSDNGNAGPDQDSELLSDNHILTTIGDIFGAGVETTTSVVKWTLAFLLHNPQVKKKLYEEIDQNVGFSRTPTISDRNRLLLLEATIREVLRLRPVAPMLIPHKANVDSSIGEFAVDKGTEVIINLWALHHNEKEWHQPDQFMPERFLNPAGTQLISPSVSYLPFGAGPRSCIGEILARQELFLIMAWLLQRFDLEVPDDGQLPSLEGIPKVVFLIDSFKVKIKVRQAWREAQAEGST
# Cytochrome P450 3A4 [2] = biological target: T2, Cytochrome P450 3A4 (Homo sapiens, UniProt P08684); experiment: Inhibition of CYP3A4; assay type: ADME
# [3] = biological target: T3, Steroid 17-alpha-hydroxylase/17,20 lyase (Rattus norvegicus, UniProt P11715); experiment: Inhibition of 17,20-lyase activity of Sprague-Dawley rat testicular microsomal CYP17A1 using [1,2-3H]-17a-hydroxyprogesterone as substrate after 15 mins by TLC analysis; set-up: species or system Testis
# T3 sequence (P11715 whole entry): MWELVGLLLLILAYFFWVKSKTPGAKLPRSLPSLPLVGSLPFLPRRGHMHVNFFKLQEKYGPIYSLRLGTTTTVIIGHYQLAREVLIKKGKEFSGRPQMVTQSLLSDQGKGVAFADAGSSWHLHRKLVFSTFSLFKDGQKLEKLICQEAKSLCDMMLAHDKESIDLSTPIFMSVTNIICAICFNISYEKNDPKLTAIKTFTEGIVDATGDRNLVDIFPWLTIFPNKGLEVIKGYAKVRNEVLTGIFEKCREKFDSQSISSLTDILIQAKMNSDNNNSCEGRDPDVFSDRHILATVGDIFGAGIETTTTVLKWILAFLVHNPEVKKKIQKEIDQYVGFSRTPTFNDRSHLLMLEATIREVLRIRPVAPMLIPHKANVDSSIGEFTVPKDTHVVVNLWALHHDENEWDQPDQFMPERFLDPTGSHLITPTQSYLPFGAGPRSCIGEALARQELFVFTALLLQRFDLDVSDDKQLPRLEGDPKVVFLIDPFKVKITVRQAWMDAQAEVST
# [4] = Inhibition of Sprague-Dawley rat adrenal gland 11-hydroxylase using [1,2-3H]-hydroxy-11-deoxycorticosterone as substrate after 30 mins by TLC analysis; assay type: tissue-based
# Cynomolgus monkey [5] = experiment: Reduction of serum testosterone level in cynomolgus monkey at 1 mg/kg, po after 8 hrs by radioimmunoassay (reference value: 296 +/- 277%); assay type: functional, Macaca fascicularis; set-up: scale not given: the % may be the effect or the level left
# Cynomolgus monkey [6] = experiment: Reduction of serum DHEA level in cynomolgus monkey at 1 mg/kg, po after 8 hrs by radioimmunoassay (reference value: 25 +/- 6.2%); assay type: functional, Macaca fascicularis; set-up: scale not given: the % may be the effect or the level left
# [7] = biological target: T1, Steroid 17-alpha-hydroxylase/17,20 lyase; experiment: Inhibition of 17,20-lyase of recombinant human CYP17A1 using [1,2-3H]-17a-hydroxypregnenolone as substrate after 15 mins by TLC analysis
# Cytochrome P450 3A4 [8] = biological target: T2, Cytochrome P450 3A4; experiment: Inhibition of recombinant human CYP3A4 assessed as conversion of testosterone into 6-hydroxytestosterone after 30 mins by HPLC analysis; assay type: ADME
# Cynomolgus monkey [9] = experiment: Reduction of serum DHEA level in cynomolgus monkey at 1 mg/kg, po after 5 hrs by radioimmunoassay (reference value: 88.6 +/- 4.4%); assay type: functional, Macaca fascicularis; set-up: scale not given: the % may be the effect or the level left
# Cynomolgus monkey [10] = experiment: Reduction of serum DHEA level in cynomolgus monkey at 1 mg/kg, po after 10 hrs by radioimmunoassay (reference value: 7.2 +/- 0.99%); assay type: functional, Macaca fascicularis; set-up: scale not given: the % may be the effect or the level left
# Cytochrome P450 1A2 = biological target: T4, Cytochrome P450 1A2 (Homo sapiens, UniProt P05177); experiment: Inhibition of human B-lymphoblastoid cell microsomal CYP1A2 assessed as 7-ethoxyresorufin O-deethylation preincubated for 5 mins with substrate; assay type: ADME
# T4 sequence (P05177 whole entry): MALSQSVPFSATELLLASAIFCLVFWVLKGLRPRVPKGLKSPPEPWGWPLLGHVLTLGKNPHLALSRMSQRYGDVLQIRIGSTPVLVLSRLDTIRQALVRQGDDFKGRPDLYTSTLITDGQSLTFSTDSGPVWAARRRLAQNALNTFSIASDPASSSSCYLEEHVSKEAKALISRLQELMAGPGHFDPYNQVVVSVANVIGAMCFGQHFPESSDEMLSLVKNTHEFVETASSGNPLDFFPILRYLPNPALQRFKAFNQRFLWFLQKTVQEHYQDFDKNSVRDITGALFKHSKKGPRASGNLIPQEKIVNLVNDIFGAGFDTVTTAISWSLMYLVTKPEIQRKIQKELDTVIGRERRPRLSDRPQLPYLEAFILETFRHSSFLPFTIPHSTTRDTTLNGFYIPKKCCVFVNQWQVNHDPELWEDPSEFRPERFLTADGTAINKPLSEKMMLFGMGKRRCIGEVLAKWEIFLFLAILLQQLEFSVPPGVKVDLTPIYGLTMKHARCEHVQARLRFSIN
# Cytochrome P450 2C8 = biological target: T5, Cytochrome P450 2C8 (Homo sapiens, UniProt P10632); experiment: Inhibition of human B-lymphoblastoid cell microsomal CYP2C8 assessed as Tolbutamide hydroxylation preincubated for 5 mins with substrate; assay type: ADME
# T5 sequence (P10632 whole entry): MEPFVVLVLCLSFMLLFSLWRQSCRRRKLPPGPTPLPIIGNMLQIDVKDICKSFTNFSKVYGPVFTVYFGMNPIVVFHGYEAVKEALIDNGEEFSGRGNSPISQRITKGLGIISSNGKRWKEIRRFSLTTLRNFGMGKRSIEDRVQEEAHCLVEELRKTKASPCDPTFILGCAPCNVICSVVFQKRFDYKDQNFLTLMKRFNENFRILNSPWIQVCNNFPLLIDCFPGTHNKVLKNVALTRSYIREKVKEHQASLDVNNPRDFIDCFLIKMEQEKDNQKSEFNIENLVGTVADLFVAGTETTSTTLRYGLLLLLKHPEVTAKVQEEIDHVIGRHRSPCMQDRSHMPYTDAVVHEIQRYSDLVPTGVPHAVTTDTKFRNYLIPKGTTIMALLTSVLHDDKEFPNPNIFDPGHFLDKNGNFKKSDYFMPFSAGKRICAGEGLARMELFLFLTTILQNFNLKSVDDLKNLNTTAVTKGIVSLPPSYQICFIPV
# Cytochrome P450 2D6 = Cytochrome P450 2D6 (Homo sapiens, UniProt P10635); experiment: Inhibition of human B-lymphoblastoid cell microsomal CYP2D6 assessed as (+)-bufuralol 1'-hydroxylation preincubated for 5 mins with substrate; assay type: ADME
# Cynomolgus monkey [11] = experiment: Reduction of serum testosterone level in cynomolgus monkey at 1 mg/kg, po after 8 hrs by radioimmunoassay (reference value: 101 +/- 54%); assay type: functional, Macaca fascicularis; set-up: scale not given: the % may be the effect or the level left
# Cynomolgus monkey [12] = experiment: Reduction of serum DHEA level in cynomolgus monkey at 1 mg/kg, po after 8 hrs by radioimmunoassay (reference value: 54 +/- 25%); assay type: functional, Macaca fascicularis; set-up: scale not given: the % may be the effect or the level left
# Cynomolgus monkey [13] = experiment: Reduction of serum testosterone level in cynomolgus monkey at 1 mg/kg, po after 2 hrs by radioimmunoassay (reference value: 90 +/- 16.6%); assay type: functional, Macaca fascicularis; set-up: scale not given: the % may be the effect or the level left
# Cynomolgus monkey [14] = experiment: Reduction of serum testosterone level in cynomolgus monkey at 1 mg/kg, po after 5 hrs by radioimmunoassay (reference value: 63 +/- 19.2%); assay type: functional, Macaca fascicularis; set-up: scale not given: the % may be the effect or the level left
# Cynomolgus monkey [15] = experiment: Reduction of serum testosterone level in cynomolgus monkey at 1 mg/kg, po after 10 hrs by radioimmunoassay (reference value: 269.8 +/- 94.5%); assay type: functional, Macaca fascicularis; set-up: scale not given: the % may be the effect or the level left
# Cynomolgus monkey [16] = experiment: Reduction of serum DHEA level in cynomolgus monkey at 1 mg/kg, po after 2 hrs by radioimmunoassay (reference value: 97.9 +/- 22.3%); assay type: functional, Macaca fascicularis; set-up: scale not given: the % may be the effect or the level left
# T2 sequence (P08684 whole entry): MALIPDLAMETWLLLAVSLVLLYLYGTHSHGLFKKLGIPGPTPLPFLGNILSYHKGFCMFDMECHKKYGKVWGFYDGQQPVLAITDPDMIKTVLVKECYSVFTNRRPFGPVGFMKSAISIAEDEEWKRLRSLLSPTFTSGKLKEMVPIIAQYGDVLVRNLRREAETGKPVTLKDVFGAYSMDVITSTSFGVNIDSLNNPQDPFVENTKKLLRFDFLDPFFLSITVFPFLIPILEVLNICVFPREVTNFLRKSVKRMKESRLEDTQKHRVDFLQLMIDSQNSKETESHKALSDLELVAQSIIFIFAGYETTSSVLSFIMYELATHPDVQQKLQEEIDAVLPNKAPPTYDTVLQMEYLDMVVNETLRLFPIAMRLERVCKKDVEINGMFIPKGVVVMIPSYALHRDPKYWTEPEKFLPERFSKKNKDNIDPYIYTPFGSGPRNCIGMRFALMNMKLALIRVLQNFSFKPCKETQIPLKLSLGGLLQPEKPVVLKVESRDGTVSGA
# Cytochrome P450 2D6, sequence (P10635 whole entry): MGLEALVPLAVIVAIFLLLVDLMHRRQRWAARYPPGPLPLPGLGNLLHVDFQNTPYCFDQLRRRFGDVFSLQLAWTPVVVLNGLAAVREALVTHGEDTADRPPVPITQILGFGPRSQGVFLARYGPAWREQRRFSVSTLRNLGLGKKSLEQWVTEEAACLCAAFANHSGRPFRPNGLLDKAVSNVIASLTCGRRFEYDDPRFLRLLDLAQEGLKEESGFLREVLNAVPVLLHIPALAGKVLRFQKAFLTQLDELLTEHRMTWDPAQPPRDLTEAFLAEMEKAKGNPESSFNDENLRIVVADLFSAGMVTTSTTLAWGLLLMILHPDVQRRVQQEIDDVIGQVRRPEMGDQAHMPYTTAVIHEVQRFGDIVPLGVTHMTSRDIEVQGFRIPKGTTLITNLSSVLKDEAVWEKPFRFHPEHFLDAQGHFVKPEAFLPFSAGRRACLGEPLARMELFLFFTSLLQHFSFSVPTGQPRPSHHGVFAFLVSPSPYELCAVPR
IC50 [3],IC50 [4],IC50 [7],IC50 (Cytochrome P450 3A4 [8]),Structure (SMILES),other results
,,,,CNC(=O)c1ccc2cc([C@](O)(c3c[nH]cn3)C(C)C)ccc2c1,IC50 [1]: 5.5 nM; IC50 (Cytochrome P450 3A4 [2]): 7800 nM
180 nM,> 1000 nM,,,CNC(=O)c1ccc2cc([C@]3(O)CCn4cncc43)ccc2c1,Activity (Cynomolgus monkey [5]): 258%; Activity (Cynomolgus monkey [6]): 91%
,> 1000 nM,,,CNC(=O)c1ccc2cc(C(O)(c3c[nH]cn3)C(C)C)ccc2c1 (racemic),
,> 1000 nM,,,CNC(=O)c1ccc2cc(C3(O)CCn4cncc43)ccc2c1 (racemic),
110 nM,520 nM,88 nM,3200 nM,CNC(=O)c1ccc2cc(C3(O)c4cncn4CC3(C)C)ccc2c1 (racemic),
> 1000 nM,> 1000 nM,410 nM,6900 nM,CNC(=O)c1ccc2cc(C(C)(O)c3cncn3C)ccc2c1 (racemic),
110 nM,> 1000 nM,190 nM,> 10000 nM,CCNC(=O)c1ccc2cc(C3(O)CCn4cncc43)ccc2c1 (racemic),
100 nM,> 1000 nM,290 nM,> 10000 nM,O=C(NC1CC1)c1ccc2cc(C3(O)CCn4cncc43)ccc2c1 (racemic),
160 nM,> 1000 nM,400 nM,> 10000 nM,CC(C)NC(=O)c1ccc2cc(C3(O)CCn4cncc43)ccc2c1 (racemic),
48 nM,> 1000 nM,,,CNC(=O)c1ccc2cc([C@@]3(O)CCn4cncc43)ccc2c1 [ORTERONEL],Activity (Cynomolgus monkey [9]): 32.8%; Activity (Cynomolgus monkey [10]): 7.6%; IC50 (Cytochrome P450 1A2): 28000 nM; IC50 (Cytochrome P450 2C8): > 30000 nM; IC50 (Cytochrome P450 2D6): > 30000 nM; Activity (Cynomolgus monkey [11]): 30%; Activity (Cynomolgus monkey [12]): 12%; Activity (Cynomolgus monkey [13]): 75.9%; Activity (Cynomolgus monkey [14]): 14.2%; Activity (Cynomolgus monkey [15]): 55.6%; Activity (Cynomolgus monkey [16]): 61.1%

Structure (SMILES),IC50 [3],IC50 [4],IC50 [7],IC50 (Cytochrome P450 3A4 [8]),other results
CNC(=O)c1ccc2cc(C3CCn4cncc43)ccc2c1 (racemic),15 nM,290 nM,13 nM,< 1000 nM,
NC(=O)c1ccc2cc(C3(O)CCn4cncc43)ccc2c1 (racemic),24 nM,100 nM,29 nM,> 10000 nM,
